Assay results from patent US10875863B2, “RIPK2 inhibitors and method of treating cancer with same” (University Health Network, priority 2014, dated 2020).

Key:
HCT116 xenografts = experiment: In vivo response of HCT116 xenografts, tolerability and body weight; design: species or system CB-17 SCID mice; conditions: SCID mice with HCT116 xenografts
Method: HCT116 colon cancer cells were purchased from ATCC (American Type Culture Collections) and cultured in DMEM (Dulbecco's Modified eagle medium—purchased from GIBCO) supplemented with 10% fetal calf serum. Five million cells were injected subcutaneously in the right flank of 6-8 week old male CB-17 SCID mice. When the mean tumor volume reached 80-120 mm^3, mice were randomized into 5 groups (n=5) and received either vehicle (10% NMP, 40% PEG, 50% H2O) or compound at the doses indicated.
Tumor volume and body weight were measured three times weekly. Tumor volume was calculated by the following formula: x^2y/2. Percent tumor growth inhibition after initiation of treatment with compound was calculated by: TGI=100×1−(tumor volumefinal−tumor volumeinitial for compound treated group)/(tumor volumefinal−tumor volumeinitial for […] control group).

[1] = system: IL-12-yellow fluorescent protein (YFP) reporter mouse bone marrow dendritic cells; experiment: IL-12-YFP reporter dendritic cells, flow cytometric analysis; assay type: cell-based; conditions: 24 hours, LPS or Pam3Cys ± 1 μg/ml MDP
Method: (§1) IL-12-yellow fluorescent protein (YFP) reporter mouse bone marrow dendritic cells were stimulated for 24 hours with 0.3 ng/ml LPS±1 μg/ml MDP (i.e., NOD2 agonist) in the presence of Example A3 (FIG. 2A). IL-12-yellow fluorescent protein (YFP) reporter mouse bone marrow dendritic cells were stimulated for 24 hours with 0.3 μg/ml Pam3Cys±1 μg/ml MDP (i.e., NOD2 agonist) in the presence of Example A3 (FIG. 2B). […] Data are represented as the mean±SEM of triplicate measurements. Levels of IL-12 p70 (FIG. 2C, left panel) and TNFα (FIG. 2C, right panel) in the cell culture supernatants from A were measured by ELISA techniques with commercially available kits. […] Data are represented as the mean±SEM of triplicate measurements.

IL-12 p70 = IL-12 p70 in dendritic cell culture supernatants by ELISA; assay type: cell-based, mouse; conditions: supernatants from LPS ± MDP stimulation
Method: as §1

TNFα = TNFα in dendritic cell culture supernatants by ELISA; assay type: cell-based, mouse; conditions: supernatants from LPS ± MDP stimulation
Method: as §1

Cc1ccccc1-c1cc2nc(Nc3cccc(N4CCOCC4)c3)ncc2[nH]1 [Example A3, N-(3-morpholinophenyl)-6-(o-tolyl)-5H-pyrrolo[3,2-d]pyrimidin-2-amine]
mean body weight loss (HCT116 xenografts; 92 mg/kg Q.D. p.o.): 7.8%
tolerability (HCT116 xenografts; Q.D. p.o., 18 days): well tolerated
mean body weight loss in the treated arms compared to control (HCT116 xenografts; treated arms versus control): less than 6%
cell viability as assessed by 7AAD exclusion [1]: no measurable effect
percentage of YFP positive cells (IL-12 positive cells) [1]: minimal effect
mean fluorescence intensity YFP (amount of IL-12) ([1]; effect MDP-dependent): dose-dependent reduction
levels of IL-12 p70 in cell culture supernatants (IL-12 p70): dose-dependent reduction
levels of TNFα in cell culture supernatants (TNFα): dose-dependent reduction
